# According to PMC10419174, “WR1065 conjugated to thiol-PEG polymers as novel anticancer prodrugs: broad spectrum efficacy, synergism, and drug resistance reversal” (Frontiers in Oncology, 2023):
# Where “and” joins values, the source holds several entries; their conditions need not be identical. Equal entries are not always repeated. Where two headings read alike, the source gives them in different places. Marks after values point to notes of the source that are not given here.
# What was measured:
# NCI-H460 NSCLC cells = settings: for Fold increase in efficacy: drug alone ÷ drug in 4SP65-DDP combination
# Text: To test anticancer effectiveness of individual drugs or drug combinations, the CyQUANT®-NF proliferation assay was used with a plate reader (i) to generate standard curves for cell numbers for each cell line, (ii) to measure the starting cell numbers at initiation of drug treatment, and (iii) to obtain fluorescence readings from cells in 96-well plates for comparisons to a standard curve for the relevant cancer cell line and quantifying cell viability after drug treatments. […] Trypan blue exclusion was used to estimate cell numbers in a few pilot experiments and thereafter was applied to confirm very low viable cell numbers and cell death.
# A series of experiments was conducted to determine the relative efficacy of 4SP65, 1LP65, and amifostine as single agents in the same human cancer cell lines.
# Five metrics were calculated and used to characterize the shape of the dose-response curve following exposure to a single test agent. Using cell numbers based on fluorescence measurements and standard curves, the percentage growth was calculated at each drug concentration level. The percentage of growth inhibition was calculated as follows:
# where Tz = cell numbers or fluorescence counts at time xero, C = vehicle-exposed control cell numbers at the end of the assessment time period, and Ti = test agent-exposed cell numbers or fluorescence counts at each drug concentration. […] The LC50/99 was calculated using Equation 2 = -50 and Eq. 2 = -99, respectively. […] For NHMECs, the relationships between drug exposure levels and fluorescence units were used to define dose-response metrics. The selectivity index values for individual drugs were calculated using IC50 levels in NHMECs divided by the IC50 value for each cancer cell line. Statistical comparisons of differences in individual dose-response metrics between drug treatments and cell lines were conducted using Student’s t-test, with P-values <0.05 considered significant.
# Relative cell growth inhibition values for differing levels of each drug alone and in combination were input into SynergyFinder to generate dose-response curves for each drug alone and to produce a dose-response matrix. The dose-response matrix data then were used in generating a two-dimension heatmap and three-dimension volcano plot to visualize the distribution of areas of differing degrees of synergism and to calculate average and maximum synergy scores in selected human cancer cell lines. The expected drug combination responses were calculated using both the Highest Single Agent (HSA) model and the Zero interaction potency (ZIP) model.
# [1] = Solubility, storage and stability of 4SP65 and 1LP65; assay type: physicochemical
# Method: prepared for use and that was not altered by the solvent used, heating up to 37 °C for up to 3 days, and shaking or rocking for up to 3 days at RT or 4°C. For experiment, an aliquot of drug was first mixed in medium, the solvent was removed and saved, and gel pieces were recovered, dried on a vacuum pump, […]
# The difference in the starting weight of drug placed into solvent minus the weight of the residue after drying on a vacuum pump was considered to represent the amount of drug that went into solution. The amount of drug that was dissolved at a given time ranged from 40 to 61%, averaging 50.7 ± 8.1% (SD). The weight of the 4SP65 in solution was then used for diluting the drug to concentrations of 200 or 400 µM in supplemented RPMI or DMEM/F12 medium for routine treatment of cells. The dried residue was not used in the in vitro drug efficacy studies. The formation of a gel in the aqueous solvents tested was unexpected since […]
# few free thiols in polymer arms of the PEG scaffold for cross-linking reactions to occur. However, unintended topical entanglements between polymer chains of multi-arm PEG-thiol molecules without disulfide formation have been reported (Tang and Bradley 2014 24860800). Aliquots of 4SP65 dissolved in FBS enriched medium has remained stable for >6 months while remnants of the original viscous polymer have maintained stability without any apparent loss of activity when stored for 60 […]
# However, the bulk of the product was dissolved at 40 mM in DMSO and stored in aliquots at −80°C for future use once by further dilution in DMSO and then final dilution in medium for treatment of normal human epithelium and human cancer cell lines at working solutions of 4 mM or 400 µM drug. 1LP65 has maintained stability for six months in frozen aliquots but should be stable in DMSO at −80°C for two to three years based upon recommended storage conditions for cystamine dihydrochloride (Selleck Chemical product information), an analogous 225 Da compound with a disulfide bond and amine groups like 1LP65. […]
# human cancer cell lines = test: cells
# Method: (§1) The percentage of growth inhibition was calculated as follows: […]
# NCI-H1975 NSCLC cells = test: cells
# Method: as §1
# Prostate LNCaP cells = test: cells
# Method: as §1
# [2] = 48-h treatment, amifostine ND = not definable up to 500 µM
# [3] = drug alone, 48 h, 4SP65/cisplatin study
# [4] = drug alone, 48 h, 4SP65/cisplatin study, ND = not definable, highest concentration in parentheses
# [5] = aqueous solvents/medium, remainder formed a gel
# [6] = 4SP65: average across 15 cell lines, 48 h
# [7] = 15 cell lines for 4SP65, 11 for 1LP65
# [8] = average of A549, H460, PPMMill, LNCaP
# [9] = average of HCC38, MDA-MB-231, H1975, HMESO1, PANC1, DU145, PC3
# [10] = averages of dose-response metrics across the panel
# [11] = averages over 11 cell lines, minimal fold differences
substance,measurement,setting,value
4-star-PEG-S-S-WR1065 [4SP65],GI50,NCI-H460 NSCLC cells; [2],9.4 ± 1.5 µM
same,IC50,NCI-H460 NSCLC cells; [2],10.7 ± 1.3 µM
same,LC99,NCI-H460 NSCLC cells; [2],17.7 ± 0.8 µM
same,TGI,NCI-H460 NSCLC cells; [2],14.1 ± 1.5 µM and 14.1 µM
same,Dose reduction value 1LP65 ÷ 4SP65,NCI-H460 NSCLC cells; at GI50,8.3 fold
same,Dose reduction value 1LP65 ÷ 4SP65,NCI-H460 NSCLC cells; at IC50,8.4 fold
same,Dose reduction value 1LP65 ÷ 4SP65,NCI-H460 NSCLC cells; at LC50,9.5 fold
same,Dose reduction value 1LP65 ÷ 4SP65,NCI-H460 NSCLC cells; at LC99,10 fold
same,Dose reduction value 1LP65 ÷ 4SP65,NCI-H460 NSCLC cells; at TGI,8.8 fold
same,Fold increase in efficacy,NCI-H460 NSCLC cells; at GI50,36 fold
same,Fold increase in efficacy,NCI-H460 NSCLC cells; at IC50,20** fold
same,Fold increase in efficacy,"NCI-H460 NSCLC cells; at LC50, GoE = gain of effect",5.3^c fold
same,Fold increase in efficacy,"NCI-H460 NSCLC cells; at LC99, GoE = gain of effect",4.3^c fold
same,Fold increase in efficacy,"NCI-H460 NSCLC cells; at TGI, GoE = gain of effect",7.4^c fold
same,GI50,NCI-H460 NSCLC cells; [3],12.3 ± 1.1 µM
same,IC50,NCI-H460 NSCLC cells; [3],13.3 ± 1 µM
same,LC99,NCI-H460 NSCLC cells; [4],18.2 ± 0.4 µM
same,TGI,NCI-H460 NSCLC cells; [4],16.9 ± 0.6 µM
same,highest level testable based upon maximum solubility in aqueous medium,[1],150 µM
same,storage time with maintained stability without apparent loss of activity,[1],60 months
same,time remained stable,[1]; aliquots dissolved in FBS enriched medium,> 6 months
same,"amount of drug dissolved at a given time, average (SD)",[1]; [5],50.7 ± 8.1%
same,"amount of drug dissolved at a given time, range",[1]; [5],40 to 61%
same,"fold more potent than 1LP65, average",human cancer cell lines,10.4 fold
same,"fold increases in cytostatic and cytolytic activities, range","human cancer cell lines; 4SP65-cisplatin combined, H460 and SKOV3 cells",1.3- to 36 fold
same,"gains of effect, range (not significant)","human cancer cell lines; 4SP65-cisplatin combined, HMESO1 and PPMMill cells",1.1- to 1.3 fold
same,"LC99, All cell lines",human cancer cell lines; [6],11.2 ± 1.2 µM
same,"TGI, All cell lines",human cancer cell lines; [6],6.8 ± 1.1 µM
same,"LC99, range for individual cell lines",human cancer cell lines; [7],3.0 to 21.1 µM
same,"TGI, range for individual cell lines",human cancer cell lines; [7],2.0 to 16.3 µM
same,fold more effective as a cytostatic agent than PRIMA-1 or APR-246,human cancer cell lines; TP53 mutant cells,2.3- to 30 fold
same,fold more effective as a cytostatic agent than PRIMA-1 or APR-246,human cancer cell lines; TP53 wild-type cells,4.3- to 21 fold
same,"LC99, TP53 Wild-Type",human cancer cell lines; [8],14.4 ± 1.6 µM
same,"TGI, TP53 Wild-Type",human cancer cell lines; [8],9.5 ± 2.0 µM
same,"LC99, TP53 Mutant",human cancer cell lines; [9],9.1 ± 0.9 µM
same,"TGI, TP53 Mutant",human cancer cell lines; [9],4.4 ± 0.9 µM
same,"fold more potent than amifostine as a cytostatic agent, average",human cancer cell lines; [10],55 fold
same,"fold more potent than amifostine as a cytostatic agent, range",human cancer cell lines; [10],45- to 63 fold
same,Fold difference in drug potency 4SP65 vs 1LP65: GI50,human cancer cell lines; averages over 11 cell lines,10.2
same,Fold difference in drug potency 4SP65 vs 1LP65: IC50,human cancer cell lines; averages over 11 cell lines,9.7
same,Fold difference in drug potency 4SP65 vs 1LP65: LC50,human cancer cell lines; averages over 11 cell lines,10.4
same,Fold difference in drug potency 4SP65 vs 1LP65: LC99,human cancer cell lines; averages over 11 cell lines,11.3
same,Fold difference in drug potency 4SP65 vs 1LP65: TGI,human cancer cell lines; averages over 11 cell lines,10.2
same,Fold difference in drug potency vs amifostine: GI50,human cancer cell lines; [11],> 45
same,Fold difference in drug potency vs amifostine: IC50,human cancer cell lines; [11],> 57
same,Fold difference in drug potency vs amifostine: TGI,human cancer cell lines; [11],> 63
same,"fold more potent than 1LP65, range",human cancer cell lines; depending on the dose-response metric,9.7- to 11.3 fold
same,fold greater effect than amifostine,human cancer cell lines; four cell lines where amifostine GI50 <100 µM,38 fold
same,GI50,"human cancer cell lines; read-out: GI50, All cell lines, 4SP65: average across 15 cell lines, 48 h",4.1 ± 0.8 µM
same,GI50,"human cancer cell lines; read-out: GI50, TP53 Mutant, average of HCC38, MDA-MB-231, H1975, HMESO1, PANC1, DU145, PC3",2.6 ± 0.8 µM
same,GI50,"human cancer cell lines; read-out: GI50, TP53 Wild-Type, average of A549, H460, PPMMill, LNCaP",5.8 ± 1.4 µM
same,GI50,"human cancer cell lines; read-out: GI50, range for individual cell lines, 15 cell lines for 4SP65, 11 for 1LP65",0.7 to 10.6 µM
same,GI50,"human cancer cell lines; read-out: GI50 range, seven cell lines compared with NCI data (Table 5)",0.7 to 9.4 µM
same,GI50,"human cancer cell lines; read-out: average GI50, four cell lines where amifostine GI50 <100 µM",1.7 µM
same,fold potency greater than predicted by four versus one WR1065/molecule,human cancer cell lines; versus 1LP65,~ 2.5 fold
same,CC50,NCI-H1975 NSCLC cells,7.6 ± 1.3 µM
same,GI50,NCI-H1975 NSCLC cells; [2],3.1 ± 0.6 µM
same,IC50,NCI-H1975 NSCLC cells; [2],4.2 ± 1 µM
same,LC99,NCI-H1975 NSCLC cells; [2],9.3 ± 1.1 µM
same,TGI,NCI-H1975 NSCLC cells; [2],5.2 ± 0.9 µM
same,Dose reduction value 1LP65 ÷ 4SP65,NCI-H1975 NSCLC cells; at GI50,13 fold
same,Dose reduction value AMF ÷ 4SP65,NCI-H1975 NSCLC cells; at GI50,42 fold
same,Dose reduction value 1LP65 ÷ 4SP65,NCI-H1975 NSCLC cells; at IC50,13 fold
same,Dose reduction value 1LP65 ÷ 4SP65,NCI-H1975 NSCLC cells; at LC50,8.3 fold
same,Dose reduction value 1LP65 ÷ 4SP65,NCI-H1975 NSCLC cells; at LC99,9.3 fold
same,Dose reduction value 1LP65 ÷ 4SP65,NCI-H1975 NSCLC cells; at TGI,10 fold
same,CC50,Prostate LNCaP cells,7.3 ± 1.8 µM
same,GI50,Prostate LNCaP cells; [2],2.5 ± 1 µM
same,IC50,Prostate LNCaP cells; [2],3.1 ± 1.5 µM
same,LC99,Prostate LNCaP cells; [2],10.1 ± 1.0 µM
same,TGI,Prostate LNCaP cells; [2],4.7 ± 1.5 µM
same,Dose reduction value 1LP65 ÷ 4SP65,Prostate LNCaP cells; at GI50,11 fold
same,Dose reduction value AMF ÷ 4SP65,Prostate LNCaP cells; at GI50,60 fold
same,Dose reduction value 1LP65 ÷ 4SP65,Prostate LNCaP cells; at IC50,14 fold
same,Dose reduction value AMF ÷ 4SP65,Prostate LNCaP cells; at IC50,122 fold
same,Dose reduction value 1LP65 ÷ 4SP65,Prostate LNCaP cells; at LC50,12 fold
same,Dose reduction value 1LP65 ÷ 4SP65,Prostate LNCaP cells; at LC99,11 fold
